In patent US20090062294A1, “HETEROARYL-SUBSTITUTED UREA MODULATORS OF FATTY ACID AMIDE HYDROLASE” (priority 2007, published 2009):
Where a name gives a salt, the structure may show the parent alone.

What was measured:
FAAH = biological target: T1, FAAH (Homo sapiens, UniProt O00519); assay: Assay Method 1: FAAH assay, 3H-anandamide hydrolysis in homogenate of T84 cells or SK-N-MC cells transfected with human FAAH; assay type: biochemical; details: average of results, > = solubility limit or highest concentration tested
T1 sequence (O00519 1-579): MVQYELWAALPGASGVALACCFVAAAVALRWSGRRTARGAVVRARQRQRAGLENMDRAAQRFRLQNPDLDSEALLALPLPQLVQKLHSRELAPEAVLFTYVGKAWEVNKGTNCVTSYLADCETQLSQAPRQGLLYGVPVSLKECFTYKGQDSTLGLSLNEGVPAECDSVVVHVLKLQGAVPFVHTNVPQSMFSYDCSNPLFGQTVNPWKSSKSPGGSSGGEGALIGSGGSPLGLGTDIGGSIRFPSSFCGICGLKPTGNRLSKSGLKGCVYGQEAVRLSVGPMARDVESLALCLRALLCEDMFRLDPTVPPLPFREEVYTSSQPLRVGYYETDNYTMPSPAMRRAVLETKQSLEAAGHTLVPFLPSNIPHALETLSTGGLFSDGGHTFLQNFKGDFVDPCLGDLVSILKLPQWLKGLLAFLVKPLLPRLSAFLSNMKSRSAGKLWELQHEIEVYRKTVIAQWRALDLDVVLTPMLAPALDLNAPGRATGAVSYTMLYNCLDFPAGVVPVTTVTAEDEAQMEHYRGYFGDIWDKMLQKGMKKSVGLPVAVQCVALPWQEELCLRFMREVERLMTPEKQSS
Method in brief: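 Hydrolysis of ^3H-anandamide (80 nM final, added last) was measured over 1 h at rt, using test compound with homogenate of T84 cells or human FAAH-transfected SK-N-MC cells. The homogenization buffer was 125 mM Tris, 1 mM EDTA, 0.02% Triton X-100, pH 9. Unbound labelled ethanolamine was passed through charcoal filters and scintillation-counted.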

rat FAAH = biological target: T2, rat FAAH (Rattus norvegicus, UniProt P97612); assay: Assay Method 2: FAAH assay, 3H-anandamide hydrolysis in homogenate of SK-N-MC cells transfected with rat FAAH; assay type: biochemical; details: average of results, > = solubility limit or highest concentration tested
T2 sequence (P97612 1-579): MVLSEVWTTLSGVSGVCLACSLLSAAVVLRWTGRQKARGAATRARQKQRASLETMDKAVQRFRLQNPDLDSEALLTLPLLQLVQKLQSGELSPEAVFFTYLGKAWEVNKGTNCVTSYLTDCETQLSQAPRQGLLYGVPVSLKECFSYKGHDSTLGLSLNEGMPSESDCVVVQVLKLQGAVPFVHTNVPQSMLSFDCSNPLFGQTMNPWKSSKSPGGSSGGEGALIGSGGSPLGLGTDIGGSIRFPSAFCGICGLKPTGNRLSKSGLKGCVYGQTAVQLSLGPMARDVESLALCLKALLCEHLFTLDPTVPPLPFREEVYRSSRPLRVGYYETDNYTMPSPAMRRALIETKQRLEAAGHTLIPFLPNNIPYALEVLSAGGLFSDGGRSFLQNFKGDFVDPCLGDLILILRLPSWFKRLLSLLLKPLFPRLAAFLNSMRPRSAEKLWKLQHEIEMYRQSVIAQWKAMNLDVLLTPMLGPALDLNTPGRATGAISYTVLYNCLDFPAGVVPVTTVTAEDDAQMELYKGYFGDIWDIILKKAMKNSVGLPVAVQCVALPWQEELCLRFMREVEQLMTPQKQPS
Method in brief: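 Read-out is scintillation counting of [3H]-ethanolamine passing through activated charcoal, after 1 h at rt with 80 nM final [3H]-AEA. Enzyme source: lysate of G418-selected SK-N-MC clones expressing rat FAAH, homogenized in Tris/EDTA/glycerol/0.02% Triton buffer, pH 9.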

SMILES	IC50 (FAAH) [nM]	IC50 (rat FAAH) [nM]
O=C(Nc1nn[nH]n1)N1CCN(Cc2ccc(Br)c(Br)c2)CC1 [Example 167, 4-(3,4-Dibromobenzyl)-N-1H-tetrazol-5-ylpiperazine-1-carboxamide]	340	80
O=C(Nc1noc2ccccc12)N1CCN(Cc2cccc(Oc3ccc(Cl)c(Cl)c3)c2)CC1 [Example 50, 4-[3-(3,4-Dichloro-phenoxy)-benzyl]-piperazine-1-carboxylic acid benzo[d]isoxazol-3-ylamide trifluoroacetic acid salt]	42	18
O=C(Nc1noc2ccccc12)N1CCC(Cc2ccc3c(c2)OC(F)(F)O3)CC1 [Example 62, N-1,2-Benzisoxazol-3-yl-4-[(2,2-difluoro-1,3-benzodioxol-5-yl)methyl]piperidine-1-carboxamide]	41	35
O=C(Nc1ccon1)N1CCC(Cc2cccc(C(F)(F)F)c2)CC1 [Example 26, 4-(3-Trifluoromethyl-benzyl)-piperidine-1-carboxylic acid isoxazol-3-ylamide]	5000	1000
O=C(Nc1noc2ccccc12)N1CCN(Cc2ccc(OC(F)(F)F)c(F)c2)CC1 [Example 108, N-1,2-Benzisoxazol-3-yl-4-[3-fluoro-4-(trifluoromethoxy)benzyl]-piperazine-1-carboxamide]	140	50
N#Cc1ccccc1C#Cc1cccc(CN2CCN(C(=O)Nc3noc4ccccc34)CC2)c1 [Example 85, N-1,2-Benzisoxazol-3-yl-4-{3-[(2-cyanophenyl)ethynyl]benzyl}-piperazine-1-carboxamide]	18	23
O=C(Nc1ccon1)N1CCN(Cc2cccc(Oc3cccc(Cl)c3)c2)CC1 [Example 136, 4-[3-(3-Chlorophenoxy)benzyl]-N-isoxazol-3-ylpiperazine-1-carboxamide]	55	1000
O=C(Nc1cnccn1)N1CCN(Cc2cccc(Oc3ccc4ncccc4c3)c2)CC1 [Example 232, N-Pyrazin-2-yl-4-[3-(quinolin-6-yloxy)benzyl]piperazine-1-carboxamide]	40	240
O=C(Nc1cnccn1)N1CCN(Cc2cnc3ccccc3c2)CC1 [Example 224, N-Pyrazin-2-yl-4-(quinolin-3-ylmethyl)piperazine-1-carboxamide]	4000	> 10000
COC(=O)c1ccccc1C#Cc1cccc(CN2CCN(C(=O)Nc3noc4ccccc34)CC2)c1 [Example 87, Methyl 2-[(3-{[4-(1,2-benzisoxazol-3-ylcarbamoyl)piperazin-1-yl]methyl}phenyl)ethynyl]benzoate]	2000	480
O=C(Nc1cnccn1)N1CCN(Cc2cccc(Oc3ccc(OCC(F)(F)F)cc3)c2)CC1 [Example 214, N-Pyrazin-2-yl-4-{3-[4-(2,2,2-trifluoroethoxy)phenoxy]benzyl}-piperazine-1-carboxamide]	15	90
O=C(Nc1noc2ccccc12)N1CCN(Cc2cccc(C#Cc3ccccc3Cl)c2)CC1 [Example 72, N-1,2-Benzisoxazol-3-yl-4-{3-[(2-chlorophenyl)-ethynyl]benzyl}-piperazine-1-carboxamide]	24	30
N#Cc1ccc(Oc2cccc(CN3CCN(C(=O)Nc4nn[nH]n4)CC3)c2)cc1C(F)(F)F [Example 170, 4-{3-[4-Cyano-3-(trifluoromethyl)phenoxy]benzyl}-N-1H-tetrazol-5-ylpiperazine-1-carboxamide]	1200	1800
O=C(Nc1noc2ccccc12)N1CCN(Cc2ccc(Br)cc2)CC1 [Example 120, N-1,2-Benzisoxazol-3-yl-4-(4-bromobenzyl)piperazine-1-carboxamide]	80	120

The remaining lines, values ahead:

IC50 (FAAH) [nM]	IC50 (rat FAAH) [nM]	SMILES
272	256	O=C(Nc1noc2ccccc12)N1CCN(Cc2cccc(C#Cc3ccccc3OC(F)(F)F)c2)CC1 [Example 82, N-1,2-Benzisoxazol-3-yl-4-(3-{[2-(trifluoromethoxy)phenyl]-ethynyl}benzyl)-piperazine-1-carboxamide]
552	57	O=C(Nc1ccc(Cl)nn1)N1CCC(Cc2ccc3ccccc3c2)CC1 [Example 9, 4-Naphthalen-2-ylmethyl-piperidine-1-carboxylic acid (6-chloro-pyridazin-3-yl)-amide]
627	49	O=C(Nc1ccon1)N1CCN(Cc2cccc(Oc3cccc(C(F)(F)F)c3)c2)CC1 [Example 48, 4-[3-(3-Trifluoromethyl-phenoxy)-benzyl]-piperazine-1-carboxylic acid isoxazol-3-ylamide trifluoroacetic acid salt]
1500	55	O=C(Nc1ccc2ncsc2c1)N1CCC(Cc2ccc3ccccc3c2)CC1 [Example 19, 4-Naphthalen-2-ylmethyl-piperidine-1-carboxylic acid benzothiazol-6-ylamide]
1750	1160	O=C(Nc1cnccn1)N1CCN(Cc2ccc3c(c2)OC(F)(F)O3)CC1 [Example 210, 4-[(2,2-Difluoro-1,3-benzodioxol-5-yl)methyl]-N-pyrazin-2-ylpiperazine-1-carboxamide]
450	440	O=C(Nc1nn[nH]n1)N1CCN(Cc2cccc(Oc3ccc(F)c(C(F)(F)F)c3)c2)CC1 [Example 185, 4-{3-[4-Fluoro-3-(trifluoromethyl)phenoxy]benzyl}-N-2H-tetrazol-5-ylpiperazine-1-carboxamide]
935	250	O=C(Nc1cccc2ncccc12)N1CCC(Cc2ccc3ccccc3c2)CC1 [Example 20, 4-Naphthalen-2-ylmethyl-piperidine-1-carboxylic acid quinolin-5-ylamide trifluoroacetic acid salt]
1700	340	O=C(Nc1nn[nH]n1)N1CCN(Cc2ccc(Cl)c(Cl)c2)CC1 [Example 182, 4-(3,4-Dichloro-benzyl)-piperazine-1-carboxylic acid (2H-tetrazol-5-yl)-amide]
141	7000	Cc1cc(NC(=O)N2CCN(Cc3cccc(Oc4ccc(Cl)cc4)c3)CC2)no1 [Example 164, 4-[3-(4-Chlorophenoxy)benzyl]-N-(5-methylisoxazol-3-yl)piperazine-1-carboxamide]
> 10000	> 10000	O=C(Nc1cccnn1)N1CCN(Cc2ccc3[nH]ccc3c2)CC1 [Example 201, 4-(1H-Indol-5-ylmethyl)-N-pyridazin-3-ylpiperazine-1-carboxamide]
46	46	O=C(Nc1noc2ccccc12)N1CCN(Cc2cccc(C#CC3CCCCC3)c2)CC1 [Example 70, N-1,2-Benzisoxazol-3-yl-4-[3-(cyclohexylethynyl)benzyl]-piperazine-1-carboxamide]
370	50	O=C(Nc1cc[nH]n1)N1CCN(Cc2cccc(Oc3ccc(Cl)c(Cl)c3)c2)CC1 [Example 54, 4-[3-(3,4-Dichloro-phenoxy)-benzyl]-piperazine-1-carboxylic acid (1H-pyrazol-3-yl)-amide trifluoroacetic acid salt]
5000	> 10000	O=C(Nc1ccon1)N1CCN(Cc2ccc(Br)cc2)CC1 [Example 148, 4-(4-Bromo-benzyl)-piperazine-1-carboxylic acid isoxazol-3-ylamide]
